Test results published in ChEMBL document CHEMBL5390204, “Persephacin Is a Broad-Spectrum Antifungal Aureobasidin Metabolite That Overcomes Intrinsic Resistance in Aspergillus fumigatus” (J Nat Prod, 2023).
Values after ≈ are worked out from the molar mass of the structure shown.

How the values were obtained:
Candida albicans [1] = test: Antifungal activity against Candida albicans SC5314 assessed as reduction in fungal growth incubated for 48 hrs by microplate reader analysis; format: functional
Nakaseomyces glabratus [2] = test: Antifungal activity against Candida glabrata 2 assessed as inhibition in fungal growth incubated for 48 hrs by microplate reader analysis; format: functional
[Candida] auris [3] = Antifungal activity against multidrug-resistant Candida auris 381 assessed as inhibition in fungal growth incubated for 48 hrs by microplate reader analysis; format: functional; settings: Candidozyma auris
Pichia kudriavzevii [4] = test: Antifungal activity against Candida krusei ATCC 6258 (Y-7179) assessed as reduction in fungal viability incubated for 48 hrs by microplate reader analysis; format: functional
Aspergillus flavus [5] = test: Antifungal activity against Aspergillus flavus NRRL485 assessed as reduction in fungal viability incubated for 48 hrs by microplate reader analysis; format: functional
Pichia kudriavzevii [6] = test: Antifungal activity against Candida krusei 25 assessed as inhibition in fungal growth incubated for 48 hrs by microplate reader analysis; format: functional
Candida albicans [7] = test: Antifungal activity against Candida albicans 5 assessed as inhibition in fungal growth incubated for 48 hrs by microplate reader analysis; format: functional
Clavispora lusitaniae = test: Antifungal activity against multidrug-resistant Candida lusitaniae 398 assessed as inhibition in fungal growth incubated for 48 hrs by microplate reader analysis; format: functional
Paecilomyces lilacinus = test: Antifungal activity against Paecilomyces lilacinus 165E10 assessed as reduction in fungal viability incubated for 48 hrs by microplate reader analysis; format: functional, Purpureocillium lilacinum
Fusarium solani = test: Antifungal activity against Fusarium solani 243G2 assessed as reduction in fungal growth incubated for 48 hrs by microplate reader analysis; format: functional
Nakaseomyces glabratus [8] = test: Antifungal activity against Candida glabrata 11 assessed as inhibition in fungal growth incubated for 48 hrs by microplate reader analysis; format: functional
Pichia kudriavzevii [9] = test: Antifungal activity against multidrug-resistant Candida krusei 397 assessed as inhibition in fungal growth incubated for 48 hrs by microplate reader analysis; format: functional
Aspergillus fumigatus [10] = test: Antifungal activity against Aspergillus fumigatus MYA 3627 assessed as reduction in fungal viability incubated for 48 hrs by microplate reader analysis; format: functional
[Candida] auris [11] = Antifungal activity against multidrug-resistant Candida auris 381 assessed as inhibition in fungal growth incubated for 48 hrs in presence of 0% serum by microplate reader analysis; format: functional; settings: Candidozyma auris
Nakaseomyces glabratus [12] = test: Antifungal activity against Candida glabrata 16 assessed as inhibition in fungal growth incubated for 48 hrs by microplate reader analysis; format: functional
Candida albicans [13] = test: Antifungal activity against Candida albicans 24 assessed as inhibition in fungal growth incubated for 48 hrs by microplate reader analysis; format: functional
Candida duobushaemulonii [14] = test: Antifungal activity against multidrug-resistant Candida duobushaemulonii 394 assessed as inhibition in fungal growth incubated for 48 hrs by microplate reader analysis; format: functional; settings: Candidozyma duobushaemuli
Candida albicans [15] = test: Antifungal activity against Candida albicans 3 assessed as inhibition in fungal growth incubated for 48 hrs by microplate reader analysis; format: functional
[Candida] haemuloni = Antifungal activity against multidrug-resistant Candida haemulonii 393 assessed as inhibition in fungal growth incubated for 48 hrs by microplate reader analysis; format: functional; settings: Candidozyma haemuli
Aspergillus fumigatus [16] = test: Antifungal activity against Aspergillus fumigatus ATCC MYA-3627 assessed as inhibition in fungal growth incubated for 48 hrs in presence of 10% serum by microplate reader analysis; format: functional
Candida albicans [17] = test: Antifungal activity against Candida albicans ATCC 10231 assessed as reduction in fungal viability incubated for 48 hrs by microplate reader analysis; format: functional
Aspergillus fumigatus [18] = test: Antifungal activity against Aspergillus fumigatus NRRL6113 assessed as reduction in fungal viability incubated for 48 hrs by microplate reader analysis; format: functional
Candida albicans [19] = test: Antifungal activity against Candida albicans 14 assessed as inhibition in fungal growth incubated for 48 hrs by microplate reader analysis; format: functional
Candida albicans [20] = test: Antifungal activity against Candida albicans 1 assessed as inhibition in fungal growth incubated for 48 hrs by microplate reader analysis; format: functional
Candida albicans [21] = test: Antifungal activity against Candida albicans 8 assessed as inhibition in fungal growth incubated for 48 hrs by microplate reader analysis; format: functional
Aspergillus niger = test: Antifungal activity against Aspergillus niger FGSC A732 assessed as reduction in fungal growth incubated for 48 hrs by microplate reader analysis; format: functional
[Candida] auris [22] = Antifungal activity against multidrug-resistant Candida auris 386 assessed as inhibition in fungal growth incubated for 48 hrs by microplate reader analysis; format: functional; settings: Candidozyma auris
Rhizopus arrhizus = test: Antifungal activity against Rhizopus oryzae FGSC 9543 assessed as reduction in fungal viability incubated for 48 hrs by microplate reader analysis; format: functional
Candida duobushaemulonii [23] = test: Antifungal activity against multidrug-resistant Candida duobushaemulonii 392 assessed as inhibition in fungal growth incubated for 48 hrs by microplate reader analysis; format: functional; settings: Candidozyma duobushaemuli
[Candida] auris [24] = Antifungal activity against multidrug-resistant Candida auris 388 assessed as inhibition in fungal growth incubated for 48 hrs by microplate reader analysis; format: functional; settings: Candidozyma auris
Cryptococcus neoformans [25] = test: Antifungal activity against Cryptococcus neoformans H99 assessed as reduction in fungal growth incubated for 48 hrs by microplate reader analysis; format: functional
Cryptococcus neoformans [26] = test: Antifungal activity against Cryptococcus neoformans H99 assessed as inhibition in fungal growth incubated for 48 hrs in presence of 10% serum by microplate reader analysis; format: functional
Candida parapsilosis [27] = test: Antifungal activity against Candida parapsilosis 28 assessed as inhibition in fungal growth incubated for 48 hrs by microplate reader analysis; format: functional; settings: Lodderomyces parapsilosis
Pichia kudriavzevii [28] = test: Antifungal activity against Candida krusei ATCC 6258 (Y-7179) assessed as reduction in fungal growth incubated for 48 hrs by microplate reader analysis; format: functional
Candida parapsilosis [29] = test: Antifungal activity against Candida parapsilosis 23 assessed as inhibition in fungal growth incubated for 48 hrs by microplate reader analysis; format: functional; settings: Lodderomyces parapsilosis
Aspergillus flavus [30] = test: Antifungal activity against Aspergillus flavus NRRL485 assessed as reduction in fungal growth incubated for 48 hrs by microplate reader analysis; format: functional
[Candida] auris [31] = Antifungal activity against multidrug-resistant Candida auris 390 assessed as inhibition in fungal growth incubated for 48 hrs by microplate reader analysis; format: functional; settings: Candidozyma auris
Candida parapsilosis [32] = test: Antifungal activity against Candida parapsilosis 9 assessed as inhibition in fungal growth incubated for 48 hrs by microplate reader analysis; format: functional; settings: Lodderomyces parapsilosis
Candida tropicalis = test: Antifungal activity against Candida tropicalis ATCC750 (Y-12699) assessed as reduction in fungal viability incubated for 48 hrs by microplate reader analysis; format: functional
Candida parapsilosis [33] = test: Antifungal activity against Candida parapsilosis 7 assessed as inhibition in fungal growth incubated for 48 hrs by microplate reader analysis; format: functional; settings: Lodderomyces parapsilosis
[Candida] auris [34] = Antifungal activity against multidrug-resistant Candida auris 383 assessed as inhibition in fungal growth incubated for 48 hrs by microplate reader analysis; format: functional; settings: Candidozyma auris
Cryptococcus neoformans [35] = test: Antifungal activity against Cryptococcus neoformans H99 assessed as inhibition in fungal growth incubated for 48 hrs in presence of 0% serum by microplate reader analysis; format: functional
Candida albicans [36] = test: Antifungal activity against Candida albicans 21 assessed as inhibition in fungal growth incubated for 48 hrs by microplate reader analysis; format: functional
Candida albicans [37] = test: Antifungal activity against Candida albicans SC5314 assessed as reduction in fungal viability incubated for 48 hrs by microplate reader analysis; format: functional
Candida albicans [38] = test: Antifungal activity against Candida albicans 30 assessed as inhibition in fungal growth incubated for 48 hrs by microplate reader analysis; format: functional

C[C@@H]1[C@H](O)[C@@H](C)/C=C/C=C/C=C/C=C/C=C/C=C/C=C/[C@H](O[C@@H]2O[C@H](C)[C@@H](O)[C@H](N)[C@@H]2O)C[C@@H]2O[C@](O)(C[C@@H](O)C[C@@H](O)[C@H](O)CC[C@@H](O)C[C@@H](O)CC(=O)O[C@H]1C)C[C@H](O)[C@H]2C(=O)O [AMPHOTERICIN B]
MFC (Candida albicans [1]): 2.5 µM (≈ 2.31 µg/mL)
MIC80 (Candida albicans [1]): 0.6 µM (≈ 0.554 µg/mL)
MIC80 (Nakaseomyces glabratus [2]): 0.3 µM (≈ 0.277 µg/mL)
MIC80 ([Candida] auris [3]): 1.3 µM (≈ 1.2 µg/mL)
MFC<=99.9 (Pichia kudriavzevii [4]): 5 µM (≈ 4.62 µg/mL)
MFC<=99.9 (Aspergillus flavus [5]): 10 µM (≈ 9.24 µg/mL)
MIC80 (Pichia kudriavzevii [6]): 1.3 µM (≈ 1.2 µg/mL)
MIC80 (Candida albicans [7]): 0.6 µM (≈ 0.554 µg/mL)
MIC80 (Clavispora lusitaniae): 0.6 µM (≈ 0.554 µg/mL)
MFC<=99.9 (Paecilomyces lilacinus): >10 µM
MFC (Fusarium solani): 1.3 µM (≈ 1.2 µg/mL)
MIC80 (Fusarium solani): 1.3 µM (≈ 1.2 µg/mL)
MIC80 (Nakaseomyces glabratus [8]): 0.3 µM (≈ 0.277 µg/mL)
MIC80 (Pichia kudriavzevii [9]): 2.5 µM (≈ 2.31 µg/mL)
MFC<=99.9 (Aspergillus fumigatus [10]): 2.5 µM (≈ 2.31 µg/mL)
MIC80 ([Candida] auris [11]): 2.5 µM
MIC80 (Nakaseomyces glabratus [12]): 0.2 µM (≈ 0.185 µg/mL)
MIC80 (Candida albicans [13]): 1.3 µM (≈ 1.2 µg/mL)
MIC80 (Candida duobushaemulonii [14]): 5 µM (≈ 4.62 µg/mL)
MIC80 (Candida albicans [15]): 0.6 µM (≈ 0.554 µg/mL)
MIC80 ([Candida] haemuloni): 5 µM (≈ 4.62 µg/mL)
MIC80 (Aspergillus fumigatus [16]): 0.2 µM
MFC<=99.9 (Candida albicans [17]): 2.5 µM (≈ 2.31 µg/mL)
MFC<=99.9 (Aspergillus fumigatus [18]): 10 µM (≈ 9.24 µg/mL)
MIC80 (Candida albicans [19]): 1.3 µM (≈ 1.2 µg/mL)
MIC80 (Candida albicans [20]): 0.6 µM (≈ 0.554 µg/mL)
MIC80 (Candida albicans [21]): 0.6 µM (≈ 0.554 µg/mL)
MFC (Aspergillus niger): 2.5 µM (≈ 2.31 µg/mL)
MIC80 (Aspergillus niger): 0.6 µM (≈ 0.554 µg/mL)
MIC80 ([Candida] auris [22]): 2.5 µM (≈ 2.31 µg/mL)
MFC<=99.9 (Rhizopus arrhizus): 0.3 µM (≈ 0.277 µg/mL)
MIC80 (Candida duobushaemulonii [23]): 5 µM (≈ 4.62 µg/mL)
MIC80 ([Candida] auris [24]): 2.5 µM (≈ 2.31 µg/mL)
MFC (Cryptococcus neoformans [25]): 2.5 µM (≈ 2.31 µg/mL)
MIC80 (Cryptococcus neoformans [25]): 1.3 µM (≈ 1.2 µg/mL)
MIC80 (Cryptococcus neoformans [26]): < 0.2 µM
MIC80 (Candida parapsilosis [27]): 1.3 µM (≈ 1.2 µg/mL)
MFC (Pichia kudriavzevii [28]): 5 µM (≈ 4.62 µg/mL)
MIC80 (Pichia kudriavzevii [28]): 2.5 µM (≈ 2.31 µg/mL)
MIC80 (Candida parapsilosis [29]): 1.3 µM (≈ 1.2 µg/mL)
MFC (Aspergillus flavus [30]): 10 µM (≈ 9.24 µg/mL)
MIC80 (Aspergillus flavus [30]): 5 µM (≈ 4.62 µg/mL)
MIC80 ([Candida] auris [31]): 2.5 µM (≈ 2.31 µg/mL)
MIC80 (Candida parapsilosis [32]): 2.5 µM (≈ 2.31 µg/mL)
MFC<=99.9 (Candida tropicalis): 2.5 µM (≈ 2.31 µg/mL)
MIC80 (Candida parapsilosis [33]): 2.5 µM (≈ 2.31 µg/mL)
MIC80 ([Candida] auris [34]): 2.5 µM (≈ 2.31 µg/mL)
MIC80 (Cryptococcus neoformans [35]): 1.3 µM
MIC80 (Candida albicans [36]): 0.6 µM (≈ 0.554 µg/mL)
MFC<=99.9 (Candida albicans [37]): 2.5 µM (≈ 2.31 µg/mL)
MIC80 (Candida albicans [38]): 2.5 µM (≈ 2.31 µg/mL)
